Molecular target: SARS-CoV-2 3CL protease (Severe acute respiratory syndrome coronavirus 2, UniProt P0DTD1)
Assay: Inhibitory activity test against SARS-CoV-2 3CL proteases
Format: biochemical
Settings: read-out: IC50 (50% SARS-CoV-2 3CL protease inhibitory concentration)

| Compound | IC50 [nM] |
| --- | --- |
| Cn1cnc(Cn2c(=O)c3cc(F)c(-c4cc5c(cc4Cl)NC(=O)C5)cc3n(Cc3cc(F)c(F)c(F)c3)c2=O)n1 [Compound I-0249] | 33 |
| COc1nc(N2CC[C@@H](C(N)=O)C2)cc2c1c(=O)n(Cc1ncn(C)n1)c(=O)n2Cc1cc(F)c(F)c(Cl)c1 [Compound I-0445] | 22 |
| COc1cc(-c2cc(CN=S(C)(C)=O)ccc2Cl)cc2c1c(=O)n(Cc1ncn(C)n1)c(=O)n2Cc1cc(F)c(F)c(F)c1 [Compound I-0363] | 35 |
| COc1cc(-c2cc(S(N)(=O)=O)ccc2Cl)cc2c1c(=O)n(Cc1ncn(C)n1)c(=O)n2Cc1cc(F)c(F)c(F)c1 [Compound I-0118] | < 100 |
| COc1cc(-c2cc3c(cc2Cl)NC(=O)C3)cc2c1c(=O)n(-c1cncc(C)c1)c(=O)n2Cc1ccc(F)c(C#N)c1 [Compound I-0060] | 2.7 |
| COc1cc(-c2cc(C(=O)NCCOCCO)ccc2Cl)cc2c1c(=O)n(-c1cncc(C)c1)c(=O)n2Cc1ccc(F)c(C#N)c1 [Compound I-0196] | 11 |
| COc1cc(-c2c(Cl)ccc3ncccc23)cc2c1c(=O)n(-c1cncc(C)c1)c(=O)n2Cc1ccc(F)c(C#N)c1 [Compound I-0068] | 5.8 |
| COc1cc(-c2cc(C(C)=O)ccc2Cl)cc2c1c(=O)n(Cc1ncn(C)n1)c(=O)n2Cc1cc(F)c(F)cc1F [Compound I-0282] | < 100 |
| COc1nc(-c2cc3c(cc2Cl)NC(=O)C3)cc2c1c(=O)n(Cc1ncn(C)n1)c(=O)n2Cc1cc(F)c(F)c(F)c1 [Compound I-0032] | 9.4 |
| COc1cc(-c2cc(CC(=O)N3CC[C@H](N)C3)ccc2Cl)cc2c1c(=O)n(-c1cncc(Cl)c1)c(=O)n2Cc1cc(F)c(F)c(F)c1 [Compound I-0211] | < 100 |
| COc1nc(-c2cc(C#N)ccc2Cl)cc2c1c(=O)n(Cc1ncn(C)n1)c(=O)n2Cc1cc(F)c(F)c(F)c1 [Compound I-0176] | 33 |
| COc1cc(-c2cc3c(cc2Cl)NC(=O)CC3)cc2c1c(=O)n(Cc1ncn(C)n1)c(=O)n2Cc1cc(F)c(F)c(F)c1 [Compound I-0125] | 32 |
| COc1cc(-c2cc(C(=O)NCCCO)ccc2Cl)cc2c1c(=O)n(-c1cncc(C)c1)c(=O)n2Cc1ccc(F)c(C#N)c1 [Compound I-0193] | 9 |
| COc1cc(N2C[C@H]3C[C@@H]2CN3)cc2c1c(=O)n(-c1cncc(Cl)c1)c(=O)n2Cc1cc(F)c(F)c(F)c1 [Compound I-0396] | 1.3 |
| COc1cc(-c2cc(C#N)ccc2Cl)cc2c1c(=O)n(-c1cncc(C)c1)c(=O)n2Cc1cc(F)c(F)c(C#N)c1 [Compound I-0165] | 1.2 |
| COc1nc(N2C[C@H]3C[C@@H]2CN3)cc2c1c(=O)n(Cc1ncn(C)n1)c(=O)n2Cc1cc(F)c(F)c(F)c1 [Compound I-0389] | 1.9 |
| COc1cc(-c2cc(CC(=O)NCCN(C)C)ccc2Cl)cc2c1c(=O)n(-c1cncc(Cl)c1)c(=O)n2Cc1cc(Cl)ccc1C [Compound I-0189] | 7.1 |
| COc1cc(-c2cc3c(cc2Cl)NC(=O)C3)cc2c1c(=O)n(-c1cncc(C)c1)c(=O)n2Cc1cc(F)c(F)c(C#N)c1 [Compound I-0161] | 0.75 |
| COc1cc(-c2cc(CC(=O)NC3CCN(C)CC3)ccc2Cl)cc2c1c(=O)n(-c1cncc(Cl)c1)c(=O)n2Cc1cc(F)c(F)c(F)c1 [Compound I-0197] | < 100 |
| Cc1cncc(-n2c(=O)c3c(Cl)cc(-c4cc(CO)ccc4Cl)cc3n(Cc3cc(F)c(F)c(F)c3)c2=O)c1 [Compound I-0016] | < 100 |
| Cc1cncc(-n2c(=O)c3c(F)cc(-c4cc(C#N)ccc4Cl)cc3n(Cc3ccc(F)c(C#N)c3)c2=O)c1 [Compound I-0050] | < 100 |
| COc1cc(-c2cc(-c3ncc[nH]3)ccc2Cl)cc2c1c(=O)n(Cc1ncn(C)n1)c(=O)n2Cc1cc(F)c(F)c(F)c1 [Compound I-0123] | < 100 |
| COc1cc(-c2cc(C(C)(C)O)ccc2Cl)cc2c1c(=O)n(Cc1ncn(C)n1)c(=O)n2Cc1cc(F)c(F)c(F)c1 [Compound I-0276] | 24 |
| COc1cc(-c2cc3c[nH]nc3cc2Cl)cc2c1c(=O)n(Cc1ncn(C)n1)c(=O)n2Cc1cc(F)c(F)c(F)c1 [Compound I-0115] | 9.3 |
| COc1cc(-c2cc(C(=O)NCCN(C)C)ccc2Cl)cc2c1c(=O)n(Cc1ncn(C)n1)c(=O)n2Cc1cc(F)c(F)c(F)c1 [Compound I-0212] | < 100 |
| COc1cc(-c2cc(CC(=O)NCCN(C)C)ccc2Cl)cc2c1c(=O)n(-c1cncc(Cl)c1)c(=O)n2Cc1ccc(F)c(C#N)c1 [Compound I-0203] | < 100 |
| NC(=O)c1ccc(Cl)c(-c2nc3c(cc2F)c(=O)n(Cc2ccc[nH]c2=O)c(=O)n3Cc2cc(F)c(F)c(F)c2)c1 [Compound I-0301] | 98 |
| [2H]C1([2H])N(c2cc3c(c(OC)n2)c(=O)n(Cc2ncn(C)n2)c(=O)n3Cc2cc(F)c(F)c(F)c2)C([2H])([2H])C([2H])([2H])C1([2H])[2H] [Compound I-0466] | < 100 |
